# Reference: PMC3561128, “Preclinical evaluation of carbon-11 and fluorine-18 sulfonamide derivatives for in vivo radiolabeling of erythrocytes” (EJNMMI Research, 2013)
# Key:
# [1] = Biodistribution studies in NMRI mice; format: in vivo; conditions: i.v.; for Percentage of ID, blood: blood mass assumed 7% of body mass
# Description: The biodistribution studies were performed in wild-type NMRI mice with body weights ranging from 30 to 40 g. Mice were intravenously injected with 0.1 MBq of ^18F]-(3) or ^18F]-(5) and 5.5 MBq of ^11C]-(4) or ^11C]-(6) under anesthesia (2% isoflurane in O2 at a flow rate of 1 L/min). The animals were killed by decapitation at 2 min or 60 min p.i. (n = 4/time point for ^18F]-(3), ^11C]-(4), and ^11C]-(6); n = 6 for ^18F]-(5)). Blood was collected, and all major organs were dissected and collected in tarred tubes and were weighed. The radioactivity in each organ was counted using an automated gamma counter, corrected for background radioactivity and expressed as follows: percentage of the injected dose (% ID) or as standardized uptake value (SUV) (SUV = (Counts in tissue per gram of tissue) / (Injected counts per total body mass (g)). For the calculation of total radioactivity in the blood, blood mass was assumed to be 7% of the body mass.
# [2] = Dynamic micro-PET scan in rats; format: in vivo, Wistar rat
# Description: PET images were acquired on a FOCUS 220 tomograph (Siemens/Concorde Microsystems, Knoxville, TN, USA). During all scan sessions, rats were anesthetized (2.5% isoflurane in O2 at a flow rate of 1 L/min) and scanned in prone position. [^18F]-(5) (37 MBq) was administered via the tail vein, and a 1-h dynamic scan was acquired. The images were acquired in list mode and binned in sinograms using a 21-dynamic frame protocol (4 × 15, 4 × 60, 5 × 180, 8 × 300 s). Reconstruction was performed with the Focus 220 software (using Fourier rebinning, followed by two-dimensional (2D) OSEM algorithm), and data were analyzed using PMOD (version 2.65; PMOD, Zurich, Switzerland). The radioactivity concentration in the heart region was expressed as SUVs as a function of time after injection of the radiotracer.
smiles,measurement,setting,value
"[11CH3]Oc1ccc(C(=O)NCCc2ccc(S(N)(=O)=O)cc2)cc1 [[^11C]-(4), 4-[^11C]methoxybenzoyl aminoethylbenzenesulfonamide]","Percentage of ID, brain",[1]; 2 min p.i.,0.2 ± 0.0 % ID
same,"Percentage of ID, carcass",[1]; 2 min p.i.,17.6 ± 1.5 % ID
same,"Percentage of ID, heart",[1]; 2 min p.i.,0.5 ± 0.1 % ID
same,"Percentage of ID, intestines",[1]; 2 min p.i.,3.6 ± 1.3 % ID
same,"Percentage of ID, kidneys",[1]; 2 min p.i.,8.1 ± 1.3 % ID
same,"Percentage of ID, liver",[1]; 2 min p.i.,8.4 ± 0.7 % ID
same,"Percentage of ID, lungs",[1]; 2 min p.i.,4.9 ± 2.5 % ID
same,"Percentage of ID, spleen + pancreas",[1]; 2 min p.i.,0.6 ± 0.1 % ID
same,"Percentage of ID, stomach",[1]; 2 min p.i.,0.7 ± 0.1 % ID
same,"Percentage of ID, urine",[1]; 2 min p.i.,0.4 ± 0.1 % ID
same,"SUV, blood",[1]; 2 min p.i.,12.9 ± 0.8
same,"SUV, brain",[1]; 2 min p.i.,0.2 ± 0.0
same,"SUV, heart",[1]; 2 min p.i.,1.2 ± 0.2
same,"SUV, kidneys",[1]; 2 min p.i.,4.3 ± 0.7
same,"SUV, liver",[1]; 2 min p.i.,1.5 ± 0.2
same,"SUV, lungs",[1]; 2 min p.i.,6.0 ± 1.6
same,"SUV, spleen",[1]; 2 min p.i.,0.9 ± 0.1
same,"Percentage of ID, blood",[1]; 2 min p.i.,90.5 ± 5.9 % ID
same,"Percentage of ID, brain",[1]; 60 min p.i.,0.3 ± 0.0 % ID
same,"Percentage of ID, carcass",[1]; 60 min p.i.,21.2 ± 2.8 % ID
same,"Percentage of ID, heart",[1]; 60 min p.i.,0.5 ± 0.1 % ID
same,"Percentage of ID, intestines",[1]; 60 min p.i.,12.4 ± 0.8 % ID
same,"Percentage of ID, kidneys",[1]; 60 min p.i.,4.1 ± 0.3 % ID
same,"Percentage of ID, liver",[1]; 60 min p.i.,9.2 ± 1.1 % ID
same,"Percentage of ID, lungs",[1]; 60 min p.i.,4.2 ± 1.1 % ID
same,"Percentage of ID, spleen + pancreas",[1]; 60 min p.i.,0.8 ± 0.1 % ID
same,"Percentage of ID, stomach",[1]; 60 min p.i.,2.6 ± 0.3 % ID
same,"Percentage of ID, urine",[1]; 60 min p.i.,4.4 ± 2.7 % ID
same,"SUV, blood",[1]; 60 min p.i.,10.4 ± 1.1
same,"SUV, brain",[1]; 60 min p.i.,0.2 ± 0.0
same,"SUV, heart",[1]; 60 min p.i.,1.0 ± 0.3
same,"SUV, kidneys",[1]; 60 min p.i.,2.5 ± 0.2
same,"SUV, liver",[1]; 60 min p.i.,1.9 ± 0.3
same,"SUV, lungs",[1]; 60 min p.i.,4.7 ± 0.7
same,"SUV, spleen",[1]; 60 min p.i.,1.1 ± 0.2
same,"Percentage of ID, blood",[1]; 60 min p.i.,72.5 ± 7.6 % ID
"[11CH3]Oc1ccc(S(N)(=O)=O)cc1 [[^11C]-(6), 4-[^11C]methoxybenzene sulfonamide]","Percentage of ID, brain",[1]; 2 min p.i.,0.7 ± 0.1 % ID
same,"Percentage of ID, carcass",[1]; 2 min p.i.,28.4 ± 2.0 % ID
same,"Percentage of ID, heart",[1]; 2 min p.i.,0.7 ± 0.2 % ID
same,"Percentage of ID, intestines",[1]; 2 min p.i.,5.2 ± 0.9 % ID
same,"Percentage of ID, kidneys",[1]; 2 min p.i.,3.7 ± 0.1 % ID
same,"Percentage of ID, liver",[1]; 2 min p.i.,6.9 ± 0.4 % ID
same,"Percentage of ID, lungs",[1]; 2 min p.i.,6.3 ± 2.7 % ID
same,"Percentage of ID, spleen + pancreas",[1]; 2 min p.i.,1.2 ± 0.1 % ID
same,"Percentage of ID, stomach",[1]; 2 min p.i.,1.5 ± 0.3 % ID
same,"Percentage of ID, urine",[1]; 2 min p.i.,0.3 ± 0.1 % ID
same,"SUV, blood",[1]; 2 min p.i.,11.9 ± 1.1
same,"SUV, brain",[1]; 2 min p.i.,0.7 ± 0.1
same,"SUV, heart",[1]; 2 min p.i.,1.6 ± 0.4
same,"SUV, kidneys",[1]; 2 min p.i.,2.4 ± 0.3
same,"SUV, liver",[1]; 2 min p.i.,1.5 ± 0.1
same,"SUV, lungs",[1]; 2 min p.i.,6.2 ± 2.1
same,"SUV, spleen",[1]; 2 min p.i.,1.9 ± 0.8
same,"Percentage of ID, blood",[1]; 2 min p.i.,83.4 ± 7.7 % ID
same,"Percentage of ID, brain",[1]; 60 min p.i.,1.5 ± 0.1 % ID
same,"Percentage of ID, carcass",[1]; 60 min p.i.,26.1 ± 1.0 % ID
same,"Percentage of ID, heart",[1]; 60 min p.i.,0.4 ± 0.1 % ID
same,"Percentage of ID, intestines",[1]; 60 min p.i.,19.3 ± 1.0 % ID
same,"Percentage of ID, kidneys",[1]; 60 min p.i.,4.1 ± 0.6 % ID
same,"Percentage of ID, liver",[1]; 60 min p.i.,6.1 ± 0.5 % ID
same,"Percentage of ID, lungs",[1]; 60 min p.i.,3.1 ± 1.4 % ID
same,"Percentage of ID, spleen + pancreas",[1]; 60 min p.i.,2.3 ± 0.6 % ID
same,"Percentage of ID, stomach",[1]; 60 min p.i.,2.4 ± 0.2 % ID
same,"Percentage of ID, urine",[1]; 60 min p.i.,4.8 ± 0.3 % ID
same,"SUV, blood",[1]; 60 min p.i.,7.1 ± 0.7
same,"SUV, brain",[1]; 60 min p.i.,1.1 ± 0.1
same,"SUV, heart",[1]; 60 min p.i.,0.9 ± 0.1
same,"SUV, kidneys",[1]; 60 min p.i.,2.4 ± 0.2
same,"SUV, liver",[1]; 60 min p.i.,1.4 ± 0.2
same,"SUV, lungs",[1]; 60 min p.i.,3.5 ± 1.1
same,"SUV, spleen",[1]; 60 min p.i.,2.4 ± 0.4
same,"Percentage of ID, blood",[1]; 60 min p.i.,49.7 ± 4.8 % ID
"NS(=O)(=O)c1ccc(OCC[18F])cc1 [[^18F]-(5), 4-(2-[^18F]fluoroethoxy)benzenesulfonamide]","Percentage of ID, brain",[1]; 2 min p.i.,0.3 ± 0.0 % ID
same,"Percentage of ID, carcass",[1]; 2 min p.i.,18.8 ± 1.6 % ID
same,"Percentage of ID, heart",[1]; 2 min p.i.,0.6 ± 0.1 % ID
same,"Percentage of ID, intestines",[1]; 2 min p.i.,2.9 ± 0.4 % ID
same,"Percentage of ID, kidneys",[1]; 2 min p.i.,4.1 ± 0.8 % ID
same,"Percentage of ID, liver",[1]; 2 min p.i.,6.0 ± 1.1 % ID
same,"Percentage of ID, lungs",[1]; 2 min p.i.,7.3 ± 3.9 % ID
same,"Percentage of ID, spleen + pancreas",[1]; 2 min p.i.,1.1 ± 0.1 % ID
same,"Percentage of ID, stomach",[1]; 2 min p.i.,0.8 ± 0.2 % ID
same,"Percentage of ID, urine",[1]; 2 min p.i.,0.3 ± 0.1 % ID
same,"SUV, blood",[1]; 2 min p.i.,17.3 ± 2.5
same,"SUV, brain",[1]; 2 min p.i.,0.5 ± 0.1
same,"SUV, heart",[1]; 2 min p.i.,1.6 ± 0.4
same,"SUV, kidneys",[1]; 2 min p.i.,3.1 ± 0.6
same,"SUV, liver",[1]; 2 min p.i.,1.4 ± 0.3
same,"SUV, lungs",[1]; 2 min p.i.,9.3 ± 2.9
same,"SUV, spleen",[1]; 2 min p.i.,2.1 ± 0.7
same,"Percentage of ID, blood",[1]; 2 min p.i.,106.3 ± 5.2 % ID
same,"Percentage of ID, brain",[1]; 60 min p.i.,1.0 ± 0.1 % ID
same,"Percentage of ID, carcass",[1]; 60 min p.i.,22.4 ± 1.5 % ID
same,"Percentage of ID, heart",[1]; 60 min p.i.,0.6 ± 0.2 % ID
same,"Percentage of ID, intestines",[1]; 60 min p.i.,9.6 ± 2.8 % ID
same,"Percentage of ID, kidneys",[1]; 60 min p.i.,3.7 ± 1.1 % ID
same,"Percentage of ID, liver",[1]; 60 min p.i.,4.0 ± 0.2 % ID
same,"Percentage of ID, lungs",[1]; 60 min p.i.,1.8 ± 0.6 % ID
same,"Percentage of ID, spleen + pancreas",[1]; 60 min p.i.,0.9 ± 0.4 % ID
same,"Percentage of ID, stomach",[1]; 60 min p.i.,4.2 ± 3.1 % ID
same,"SUV, blood",[1]; 60 min p.i.,11.1 ± 1.2
same,"SUV, brain",[1]; 60 min p.i.,1.4 ± 0.2
same,"SUV, heart",[1]; 60 min p.i.,1.7 ± 0.5
same,"SUV, kidneys",[1]; 60 min p.i.,2.5 ± 0.4
same,"SUV, liver",[1]; 60 min p.i.,1.0 ± 0.1
same,"SUV, lungs",[1]; 60 min p.i.,3.8 ± 0.4
same,"SUV, spleen",[1]; 60 min p.i.,2.2 ± 0.8
same,"Percentage of ID, blood",[1]; 60 min p.i.,71.0 ± 14.5 % ID
same,Average SUV ratio heart-to-kidney,[2]; micro-PET,2.5
same,Average SUV ratio heart-to-liver,[2]; micro-PET,4
same,Average SUV ratio heart-to-spleen,[2]; micro-PET,2.3
same,Bone uptake (in vivo defluorination),[2]; micro-PET,no bone uptake was observed
same,Heart region SUV at 60 min relative to the 2-min value,[2]; micro-PET,75%
same,"SUV, heart","[2]; micro-PET time activity curves, 37 MBq i.v.",2.5
